{"source": "paper PMC10907560", "about": "“Significant reduction of activity retention in the kidneys via optimized linker sequences in radiohybrid-based minigastrin analogs” (EJNMMI Research, 2024)", "key": {"[1]": {"target": "T1, Human serum albumin (HSA) (Homo sapiens, UniProt P02768)", "T1 construct": "purchased Daicel, Tokyo, Japan H13H-2433", "T1 sequence (P02768 25-609)": "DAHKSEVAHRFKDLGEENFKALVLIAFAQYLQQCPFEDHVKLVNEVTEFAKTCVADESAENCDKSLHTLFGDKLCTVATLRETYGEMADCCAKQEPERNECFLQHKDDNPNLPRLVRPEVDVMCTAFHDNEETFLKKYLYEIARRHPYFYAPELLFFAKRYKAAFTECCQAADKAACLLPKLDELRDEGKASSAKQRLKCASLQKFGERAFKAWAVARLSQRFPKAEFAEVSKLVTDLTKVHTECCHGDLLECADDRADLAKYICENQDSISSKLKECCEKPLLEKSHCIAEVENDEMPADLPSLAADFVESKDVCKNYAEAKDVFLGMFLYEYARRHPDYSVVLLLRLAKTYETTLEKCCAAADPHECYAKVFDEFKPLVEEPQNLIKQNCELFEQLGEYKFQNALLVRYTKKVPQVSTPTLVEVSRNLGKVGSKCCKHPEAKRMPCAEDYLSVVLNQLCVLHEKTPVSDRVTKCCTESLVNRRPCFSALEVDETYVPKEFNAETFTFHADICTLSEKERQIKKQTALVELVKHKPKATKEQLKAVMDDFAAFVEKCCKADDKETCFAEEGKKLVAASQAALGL", "assay": "Human serum albumin binding via high performance affinity chromatography (HPAC)", "type": "in vitro ADME", "details": "Chiralpak HSA column, n = 1", "experimental": "Human serum albumin (HSA) binding was determined via high performance affinity chromatography (HPAC), according to previously published protocols. Human serum albumin interaction was calculated according to the retention time (n = 1) of our compounds on a Chiralpak HSA column in dependence of nine reference compounds with known HSA interaction.\nHuman serum albumin binding was determined via high performance affinity chromatography. Therefore, a Chiralpak HSA column (50 × 3 mm, 5 µm, H13H-2433, Daicel, Tokyo, Japan) was used at a constant flow rate of 0.5 ml/min at room temperature. Mobile phase A consisted of a freshly prepared aqueous solution of NH4OAc (pH = 6.9, 50 mM) and mobile phase B of isopropanol. Calibration of the column was performed daily prior to experiments, by determining the retention times of nine reference substances displaying a HSA binding from 13 to 99%. HPLC gradient for all compounds tested was 100% A (0 to 3 min), followed by 80% A (3 to 40 min). All substances tested, were dissolved in a mixture of A/B (0.5 mg/mL, 1:1, v/v). OriginPro 2016G software (Northampton, United States) was used for non-linear regression and data evaluation."}, "[2]": {"target": "T2, cholecystokinin-2 receptor (CCK-2R) (Rattus norvegicus, UniProt P30553)", "T2 construct": "host or cells: AR42J (rat pancreatic cancer cells)", "T2 sequence (P30553 1-452)": "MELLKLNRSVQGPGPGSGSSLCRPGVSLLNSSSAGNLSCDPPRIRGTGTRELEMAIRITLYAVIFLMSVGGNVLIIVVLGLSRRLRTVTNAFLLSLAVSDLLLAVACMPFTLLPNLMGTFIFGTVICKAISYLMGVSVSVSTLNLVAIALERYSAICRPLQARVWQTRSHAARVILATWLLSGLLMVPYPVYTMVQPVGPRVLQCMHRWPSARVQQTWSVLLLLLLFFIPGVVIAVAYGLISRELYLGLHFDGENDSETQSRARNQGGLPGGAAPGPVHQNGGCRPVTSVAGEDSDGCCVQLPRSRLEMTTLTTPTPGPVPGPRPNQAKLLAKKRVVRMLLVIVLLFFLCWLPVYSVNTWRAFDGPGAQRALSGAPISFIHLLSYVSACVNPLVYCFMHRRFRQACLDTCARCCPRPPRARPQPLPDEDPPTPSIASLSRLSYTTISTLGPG", "assay": "CCK-2R affinity (apparent IC50), competitive binding on AR42J cells", "details": "natLu-labeled peptide, 3 h, 37 °C, [177Lu]Lu-DOTA-PP-F11N (0.3 pmol) as radiolabeled reference", "experimental": "On the next day, medium was removed, cells were washed with PBS (300 µL) and fresh nutrient medium supplemented with 5% BSA (200 µL) was added. The peptide of interest (25 µL in nutrient medium) in increasing concentrations (10^−10 to 10^−4 M) in triplicate as well as [^177Lu]Lu-DOTA-PP-F11N (25 μL, 0.3 pmol) were added to the cells and the assay was incubated for 3 h at 37 °C. Subsequently, the supernatant was collected, cells were washed with PBS (300 µL) and both fractions were unified. Cell lysis was conducted by addition of NaOH (300 µL, 1 N) and incubation for at least 20 min at room temperature. The supernatant was collected, the respective wells were washed with NaOH (300 µL, 1 N) and both fractions were unified. Radioactivity of all fractions collected was quantified using a γ-counter (PerkinElmer Inc., Waltham, United States). Apparent half-maximal inhibitory concentration (IC50) was calculated via the GraphPad PRISM software (GraphPad Software Inc., La Jolla, United States).\nCCK-2R positive rat pancreatic cancer cells AR42J (CLS GmbH, Eppelheim, Germany) were cultivated in monolayers in CELLSTAR® cell culture flask (Greiner Bio-One GmbH, Frickenhausen, Germany) at 37°C in a humidified atmosphere (5% CO2). Therefor, a HERAcell 150i-Incubator (Thermo Fisher Scientific Inc., Waltham, United States) was used. RPMI 1640 medium, supplemented with 5 mM L-Gln 5 mL non-essential amino acids (100×) and 10% FCS, was used for cell nutrition. Detachment of the cells for passaging was conducted with a Dulbecco’s PBS solution supplemented with 0.1% EDTA (v/v). Cell numbers were determined with a Neubauer hemocytometer (Paul Marienfeld, Lauda-Königshofen, Germany). All operations requiring sterile conditions, were accomplished using a MSC-Advantage safety workbench (Thermo Fisher Scientific Inc., Waltham, United States).\nTable S1. Affinity, lipophilicity and human serum albumin binding data of the compounds evaluated. Affinity data were determined on AR42J cells (2.0 × 10^5 cells/well) and [^177Lu]Lu-DOTA-PP-F11N (0.3 pmol/well) as radiolabeled reference (3 h, 37 °C, RPMI 1640, 5 mM L-Gln, 5 mL non-essential amino acids (100×), 10% FCS + 5% BSA (v/v))."}, "[3]": {"assay": "Lipophilicity, n-octanol/PBS distribution coefficient logD7.4", "type": "physicochemical", "details": "177Lu-labeled peptide; n-octanol/PBS (1/1), n ≥ 5", "experimental": "For determination of lipophilicity, the respective ^177Lu-Labeled peptide precursor (~ 1 MBq, 10 µL in 0.04 M HCl) was added to a solution of n-octanol/PBS (1/1, v/v, 1 mL) and vigourously mixed for 3 min at room temperature (n ≥ 5). Afterwards both phases were seperated using a Biofuge 15 centrifuge (Heraus Sepatech GmbH, Osterode, Germany) at 9,000 rpm for 5 min. 200 µL aliquots of both layers were collected separately, measured in a γ-counter (Perkin Elmer, Waltham, MA, USA) and the logD7.4 value was obtained."}, "[4]": {"system": "AR42J tumor-bearing CB17-SCID mice", "details": "24 h p.i.; cited from earlier work"}, "[5]": {"target": "T2, cholecystokinin-2 receptor (CCK-2R)", "details": "AR42J cells; read-out: apparent IC50; cited from earlier work"}}, "note": "Read-outs that look alike come from different tables or passages of the source. Numbered stars: 1 amine (or outer) side, 2 acyl side, 3 side chain; on linkers, the order of the positions; unused ones are H or OH. Square brackets hold non-standard residues; d marks the D form. Peptide text beside a SMILES is read from it. * marks the point of attachment. X1 = CC(C)(C)[Si](F)(c1ccc(C[N+](C)(C)CC(=O)*)cc1)C(C)(C)C; DOTA = O=C(O)CN1CCN(CC(=O)O)CCN(CC(=O)*)CCN(CC(=O)O)CC1; d(γGlu) = O=C(O)[C@@H](CCC(=O)[*:2])N[*:1]; 1Nal = N[C@@H](Cc1cccc2ccccc12)C(=O)O; PEG5 = NCCOCCOCCOCCOCCOCCC(=O)O; NMeNle = CCCC[C@H](NC)C(=O)O; PEG4 = NCCOCCOCCOCCOCCC(=O)O; Nle = CCCC[C@H](N)C(=O)O; dDap = NC[C@@H](N)C(=O)O", "data": [{"compound": "CCCC[C@@H](C(=O)N[C@@H](CC(=O)O)C(=O)N[C@@H](Cc1cccc2ccccc12)C(N)=O)N(C)C(=O)[C@H](Cc1c[nH]c2ccccc12)NC(=O)CCOCCOCCOCCOCCNC(=O)CC[C@@H](NC(=O)CCOCCOCCOCCOCCOCCNC(=O)[C@@H](CNC(=O)C[N+](C)(C)Cc1ccc([Si](F)(C(C)(C)C)C(C)(C)C)cc1)NC(=O)CN1CCN(CC(=O)O)CCN(CC(=O)O)CCN(CC(=O)O)CC1)C(=O)O", "note": "[[^nat/177Lu]Lu-DOTA-rhCCK-90, DOTA-D-Dap(SiFAlin)-(PEG)4-B, metal not drawn] ({DOTA}-[dDap](X1)[PEG5][d(γGlu)][PEG4]W[NMeNle]D[1Nal]-NH2)", "values": [{"measurement": "HSA binding", "setting": "[1]", "result": 94.5, "unit": "%"}, {"measurement": "IC50", "setting": "[2]; n = 3", "result": "9.9 ± 1", "unit": "nM"}, {"measurement": "logD", "setting": "[3]", "result": "-0.76 ± 0.09"}]}, {"compound": "(R)-DOTAGA-D-Dap(p-SiFA)-(D-γ-Glu)6-Ala-Tyr-Gly-Trp-Nle-Asp-Phe-NH2 ({(R)‑DOTAGA-dDap(p-SiFA)-d(γGlu)-d(γGlu)-d(γGlu)-d(γGlu)-d(γGlu)-d(γGlu)}-AYGW[Nle]DF-NH2; also: 177Lu complex of DOTAGA) [[^177Lu]Lu-(R)-DOTAGA-rhCCK-16]", "values": [{"measurement": "activity levels in the tumor", "setting": "[4]", "result": "18.0 ± 0.7", "unit": "%ID/g"}, {"measurement": "IC50", "setting": "[5]", "result": "20.4 ± 2.7", "unit": "nM"}]}, {"compound": "CCCC[C@@H](C(=O)N[C@@H](CC(=O)O)C(=O)N[C@@H](Cc1cccc2ccccc12)C(N)=O)N(C)C(=O)[C@H](Cc1c[nH]c2ccccc12)NC(=O)CCOCCOCCOCCOCCNC(=O)CC[C@@H](NC(=O)CCOCCOCCOCCOCCOCCOCCOCCOCCOCCOCCOCCOCCNC(=O)CC[C@@H](NC(=O)[C@@H](CNC(=O)c1cc(C(=O)O)cc([Si](F)(C(C)(C)C)C(C)(C)C)c1)NC(=O)CN1CCN(CC(=O)O)CCN(CC(=O)O)CCN(CC(=O)O)CC1)C(=O)O)C(=O)O", "note": "[[^nat/177Lu]Lu-DOTA-rhCCK-69, DOTA-D-Dap(SiFA-ipa)-D-γ-Glu-(PEG)11-B, metal not drawn]", "values": [{"measurement": "HSA binding", "setting": "[1]", "result": 84.7, "unit": "%"}, {"measurement": "IC50", "setting": "[2]; n = 3, listed as [^natLu]Lu-DOTA-rhCCK-69", "result": "42.1 ± 1.7", "unit": "nM"}, {"measurement": "logD", "setting": "[3]", "result": "-2.11 ± 0.09"}]}]}
